Source: patent publication US9181234B2, “Antibacterial compounds” (priority 2010, dated 2015)
Converted amounts (≈) assume the structure as drawn.

Columns and labels:
physchem = conditions: for solubility at 24 h: pH 7.4, aqueous buffer, kinetic from dmso stock
In short: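 DMSO doubling dilutions were diluted twenty-fold into 100 mM citrate (pH 4), PBS (pH 7.4) or carbonate-bicarbonate (pH 9). After 24 h equilibration at room temperature, absorbance was read at 620 nm. The reported value is the highest concentration without measurable precipitate.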

[1] = tested on: Staphylococcus aureus (Isolate ID ATCC 29213); assay: Antibacterial activity, MIC, S. aureus; assay type: cell-based; conditions: broth microdilution or agar dilution; for MIC: Staphylococcus aureus, ATCC29213, Gram positive strain
In short: (§1)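 Broth microdilution or agar dilution per CLSI M7-A7; MIC read as susceptibility endpoint in liquid or solid medium.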

[2] = tested on: Enterococcus faecalis (Isolate ID ATCC 29212); assay: Antibacterial activity, MIC, E. faecalis; assay type: cell-based; conditions: Gram positive strain, broth microdilution or agar dilution; for MIC: Enterococcus faecalis, ATCC29212
In short: as §1

[3] = tested on: Streptococcus pyogenes (Isolate ID ATCC 51339); assay: Antibacterial activity, MIC, S. pyogenes; assay type: cell-based; conditions: broth microdilution or agar dilution; for MIC: Streptococcus pyogenes, ATCC51339, Gram positive strain
In short: as §1

[4] = tested on: Haemophilus influenzae (Isolate ID ATCC 49247); assay: Antibacterial activity, MIC, H. influenzae; assay type: cell-based; conditions: Gram negative strain, broth microdilution or agar dilution; for MIC: Haemophilus influenzae, ATCC49247
In short: as §1

Q: Which solubility at 24 h (physchem; Solubility (pH 7.4)) does the source give for `CCNC(=O)Nc1nc2cc(-c3cnc(N4CCC(O)C(C)(C(=O)OC)C4)nc3)cc(-c3ccccn3)c2s1` (centres unmarked) [Compound 172] here?
A: 12.5 µg/mL (≈ 22.8 µM)

Q: And the solubility at 24 h (physchem; Solubility Range)?
A: 12.5 to 400 µg/mL (≈ 22.8 to 730 µM)

Q: And the MIC [1]?
A: 1 to 16 µg/mL (≈ 1.83 to 29.2 µM)

Q: And the MIC [2]?
A: ≤ 0.25 µg/mL

Q: What about the MIC [3] of the same compound?
A: ≤ 0.25 µg/mL

Q: What about the MIC [4] of the same compound?
A: 1 to 16 µg/mL (≈ 1.83 to 29.2 µM)

Q: With `CCNC(=O)Nc1nc2cc(-c3cnc(N4CCC(O)(C(=O)OC)CC4)nc3)cc(-c3ccccn3)c2s1` [Compound 173] as the compound, how does the solubility at 24 h (physchem; Solubility (pH 7.4)) read?
A: 50 µg/mL (≈ 93.7 µM)

Q: And the solubility at 24 h (physchem; Solubility Range)?
A: 12.5 to 400 µg/mL (≈ 23.4 to 750 µM)

Q: What about the MIC [1] of the same compound?
A: 0.25 to 1 µg/mL (≈ 0.469 to 1.87 µM)

Q: What about the MIC [2] of the same compound?
A: ≤ 0.25 µg/mL

Q: What about the MIC [3] of the same compound?
A: ≤ 0.25 µg/mL

Q: What about the MIC [4] of the same compound?
A: 1 to 16 µg/mL (≈ 1.87 to 30 µM)

Q: With `CCNC(=O)Nc1nc2cc(-c3cnc(N4CCC(C#N)(C(=O)OCC)CC4)nc3)cc(-c3ccccn3)c2s1` [Compound 174] as the compound, how does the solubility at 24 h (physchem; Solubility (pH 7.4)) read?
A: 3.12 µg/mL (≈ 5.61 µM)

Q: And the solubility at 24 h (physchem; Solubility Range)?
A: < 12.5 µg/mL

Q: And the MIC [1]?
A: > 16 µg/mL

Q: What about the MIC [2] of the same compound?
A: 0.25 to 1 µg/mL (≈ 0.449 to 1.8 µM)

Q: What about the MIC [3] of the same compound?
A: 0.25 to 1 µg/mL (≈ 0.449 to 1.8 µM)

Q: What about the MIC [4] of the same compound?
A: > 16 µg/mL

Q: What does the source list for `CCNC(=O)Nc1nc2cc(-c3cnc(N4CCC(OC)(C(=O)OC)CC4)nc3)cc(-c3ccccn3)c2s1` [Compound 175]?
A: solubility at 24 h (physchem; Solubility (pH 7.4)): 25 µg/mL (≈ 45.7 µM); solubility at 24 h (physchem; Solubility Range): 12.5 to 400 µg/mL (≈ 22.8 to 730 µM); MIC [1]: 0.25 to 1 µg/mL (≈ 0.457 to 1.83 µM); MIC [2]: ≤ 0.25 µg/mL; MIC [3]: ≤ 0.25 µg/mL; MIC [4]: 1 to 16 µg/mL (≈ 1.83 to 29.2 µM)

Q: With `CCNC(=O)Nc1nc2cc(-c3cnc(N4CCC(C(=O)OCC)(S(C)(=O)=O)CC4)nc3)cc(-c3ccccn3)c2s1` [Compound 176] as the compound, how does the solubility at 24 h (physchem; Solubility (pH 7.4)) read?
A: 100 µg/mL (≈ 164 µM)

Q: And the solubility at 24 h (physchem; Solubility Range)?
A: 12.5 to 400 µg/mL (≈ 20.5 to 656 µM)

Q: What about the MIC [1] of the same compound?
A: > 16 µg/mL

Q: What about the MIC [2] of the same compound?
A: > 16 µg/mL

Q: What about the MIC [3] of the same compound?
A: 0.25 to 1 µg/mL (≈ 0.41 to 1.64 µM)

Q: What about the MIC [4] of the same compound?
A: > 16 µg/mL

Q: Which solubility at 24 h (physchem; Solubility (pH 7.4)) does the source give for `CCNC(=O)Nc1nc2cc(-c3cnc(N4CCC(Cc5ccccc5)(C(=O)OCC)CC4)nc3)cc(-c3ccccn3)c2s1` [Compound 177] here?
A: 12.5 µg/mL (≈ 20.1 µM)

Q: And the solubility at 24 h (physchem; Solubility Range)?
A: 12.5 to 400 µg/mL (≈ 20.1 to 643 µM)

Q: What about the MIC [1] of the same compound?
A: > 16 µg/mL

Q: And the MIC [2]?
A: > 16 µg/mL

Q: And the MIC [3]?
A: > 16 µg/mL

Q: What about the MIC [4] of the same compound?
A: > 16 µg/mL

Q: What does the source list for `CCNC(=O)Nc1nc2cc(-c3cnc(N4CCC(C)(C(=O)OCC)CC4)nc3)cc(C3CCN(C(C)=O)CC3)c2s1` [Compound 178]?
A: Max Solubility (physchem; pH 4): 6.25 µg/mL; Solubility (pH 7.4) (physchem; pH 7.4): 3.125 μg/mL; Antibacterial Activity (MIC) S. aureus (ATCC 29213) ([1]; Gram positive strain): D (“D” activity >16 μg/mL); Antibacterial Activity (MIC) E. faecalis (ATCC 29212) [2]: D (“D” activity >16 μg/mL); Antibacterial Activity (MIC) S. pyogenes (ATCC 51339) ([3]; Gram positive strain): C (“C” activity >1.0 μg/mL-16 μg/mL); Antibacterial Activity (MIC) H. influenzae (ATCC 49247) [4]: D (“D” activity >16 μg/mL)

Q: For `CCNC(=O)Nc1nc2cc(-c3cnc(N4CCC(C(=O)OC)(C(F)(F)F)C4)nc3)cc(-c3ccccn3)c2s1` (centres unmarked) [Compound 180], which solubility at 24 h (physchem; Solubility (pH 7.4)) is on record?
A: 6.25 µg/mL (≈ 10.9 µM)

Q: And the solubility at 24 h (physchem; Solubility Range)?
A: < 12.5 µg/mL

Q: And the MIC [1]?
A: 1 to 16 µg/mL (≈ 1.75 to 28 µM)

Q: And the MIC [2]?
A: 0.25 to 1 µg/mL (≈ 0.437 to 1.75 µM)

Q: What about the MIC [3] of the same compound?
A: 0.25 to 1 µg/mL (≈ 0.437 to 1.75 µM)

Q: What about the MIC [4] of the same compound?
A: > 16 µg/mL

Q: Which solubility at 24 h (physchem; Max Solubility) does the source give for `CCNC(=O)Nc1nc2cc(-c3cncc(N4CCC(C)(C(=O)O)CC4)c3)cc(-c3ccccn3)c2s1` [Compound 181] here?
A: ≥ 800 µg/mL

Q: And the solubility at 24 h (physchem; Solubility (pH 7.4))?
A: ≥ 800 µg/mL

Q: What about the solubility at 24 h (physchem; Solubility Range) of the same compound?
A: > 800 µg/mL

Q: What about the solubility at 24 h (physchem; Solubility Range (maximum solubility)) of the same compound?
A: > 800 µg/mL

Q: What about the MIC [1] of the same compound?
A: 0.25 to 1 µg/mL (≈ 0.484 to 1.94 µM)

Q: What about the MIC [2] of the same compound?
A: ≤ 0.25 µg/mL

Q: And the MIC [3]?
A: ≤ 0.25 µg/mL

Q: What about the MIC [4] of the same compound?
A: 1 to 16 µg/mL (≈ 1.94 to 31 µM)

Q: Which results are given for `CCNC(=O)Nc1nc2cc(-c3ccc(C4=NOC(C)(C(=O)O)C4)nc3)cc(-c3ccccn3)c2s1` (centres unmarked) [Compound 183]?
A: solubility at 24 h (physchem; Solubility (pH 7.4)): 100 µg/mL (≈ 199 µM); solubility at 24 h (physchem; Solubility Range): 12.5 to 400 µg/mL (≈ 24.9 to 796 µM); MIC [1]: 1 to 16 µg/mL (≈ 1.99 to 31.8 µM); MIC [2]: 0.25 to 1 µg/mL (≈ 0.497 to 1.99 µM); MIC [3]: ≤ 0.25 µg/mL; MIC [4]: 1 to 16 µg/mL (≈ 1.99 to 31.8 µM)

Q: With `CCNC(=O)Nc1nc2cc(-c3ccc(C4=NOC(C)(C(=O)OCC)C4)nc3)cc(-c3ccccn3)c2s1` (centres unmarked) [Compound 184] as the compound, how does the solubility at 24 h (physchem; Solubility (pH 7.4)) read?
A: 6.25 µg/mL (≈ 11.8 µM)

Q: What about the solubility at 24 h (physchem; Solubility Range) of the same compound?
A: < 12.5 µg/mL

Q: And the MIC [1]?
A: ≤ 0.25 µg/mL

Q: And the MIC [2]?
A: ≤ 0.25 µg/mL

Q: What about the MIC [3] of the same compound?
A: ≤ 0.25 µg/mL

Q: And the MIC [4]?
A: 1 to 16 µg/mL (≈ 1.88 to 30.2 µM)

Q: Which solubility at 24 h (physchem; Solubility (pH 7.4)) does the source give for `CCNC(=O)Nc1nc2cc(-c3cnc(N4CCC(C(N)=O)(c5ccccc5)CC4)nc3)cc(-c3ccccn3)c2s1` [Compound 185] here?
A: 6.25 µg/mL (≈ 10.8 µM)

Q: And the solubility at 24 h (physchem; Solubility Range)?
A: < 12.5 µg/mL

Q: And the MIC [1]?
A: 0.25 to 1 µg/mL (≈ 0.432 to 1.73 µM)

Q: And the MIC [2]?
A: ≤ 0.25 µg/mL

Q: And the MIC [3]?
A: 1 to 16 µg/mL (≈ 1.73 to 27.6 µM)

Q: And the MIC [4]?
A: > 16 µg/mL
